Reference: patent US20100311714A1, “1H-IMIDAZO[4,5-c]QUINOLINONE COMPOUNDS” (priority 2009, published 2010)

target: T1, PI3K gamma (Homo sapiens, UniProt P48736); assay: PI3K gamma kinase assay (Kinase-Glo luminescence); type: biochemical; details: read-out: PI3Kgamma/IC50
T1 construct: His tag (C); made in house; host or cells: construct from Roger Williams lab (pVL1393); baculovirus BV950; Tn5 (Trichoplusia ni) or TiniPro insect cells
T1 sequence (P48736 144-1102 limits assumed): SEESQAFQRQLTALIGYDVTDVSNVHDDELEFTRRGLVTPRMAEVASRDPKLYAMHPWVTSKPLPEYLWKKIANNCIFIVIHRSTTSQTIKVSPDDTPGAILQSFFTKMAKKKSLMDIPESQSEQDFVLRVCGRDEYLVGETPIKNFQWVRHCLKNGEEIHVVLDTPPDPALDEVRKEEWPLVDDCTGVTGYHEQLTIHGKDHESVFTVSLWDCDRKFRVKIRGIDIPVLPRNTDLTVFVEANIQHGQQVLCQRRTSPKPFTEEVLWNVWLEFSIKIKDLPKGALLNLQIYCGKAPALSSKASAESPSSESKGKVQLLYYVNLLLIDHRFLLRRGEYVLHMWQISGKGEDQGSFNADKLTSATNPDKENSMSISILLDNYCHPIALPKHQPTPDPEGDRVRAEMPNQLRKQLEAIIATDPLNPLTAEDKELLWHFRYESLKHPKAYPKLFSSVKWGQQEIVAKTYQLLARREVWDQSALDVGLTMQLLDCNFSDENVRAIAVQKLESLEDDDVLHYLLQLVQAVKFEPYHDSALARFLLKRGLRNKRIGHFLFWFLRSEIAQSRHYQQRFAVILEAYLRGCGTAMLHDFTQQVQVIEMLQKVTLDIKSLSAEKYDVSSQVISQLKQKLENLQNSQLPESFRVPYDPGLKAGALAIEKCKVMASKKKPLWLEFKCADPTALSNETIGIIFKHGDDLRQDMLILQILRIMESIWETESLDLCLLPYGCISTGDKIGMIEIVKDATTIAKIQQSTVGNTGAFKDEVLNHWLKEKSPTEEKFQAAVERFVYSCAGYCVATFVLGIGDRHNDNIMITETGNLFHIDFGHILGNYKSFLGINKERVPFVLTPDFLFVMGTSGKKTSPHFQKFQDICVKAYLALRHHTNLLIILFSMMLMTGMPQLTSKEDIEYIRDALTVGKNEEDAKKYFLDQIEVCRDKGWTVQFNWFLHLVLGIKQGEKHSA

IC50 [nM]	SMILES
455	CNC(=O)c1ccc(-c2ccc3ncc4c(c3c2)n(-c2cccnc2C)c(=O)n4C)cc1 [Example 2.4, N-Methyl-4-[3-methyl-1-(2-methyl-pyridin-3-yl)-2-oxo-2,3-dihydro-1H-imidazo[4,5-c]quinolin-8-yl]-benzamide]
361	Cc1ncccc1-n1c(=O)n(C)c2cnc3ccc(-c4cnc5[nH]ccc5c4)cc3c21 [Example 2.8, 3-Methyl-1-(2-methyl-pyridin-3-yl)-8-(1H-pyrrolo[2,3-b]pyridin-5-yl)-1,3-dihydro-imidazo[4,5-c]quinolin-2-one]
464	Cn1c(=O)n(-c2cccnc2F)c2c3cc(-c4cnc5[nH]ccc5c4)ccc3ncc21 [Example 6.3, 1-(2-Fluoro-pyridin-3-yl)-3-methyl-8-(1H-pyrrolo[2,3-b]pyridin-5-yl)-1,3-dihydro-imidazo[4,5-c]quinolin-2-one]
